Experimental data as given in US20100298141A1, “SUBSTITUTED PYRIDINE N-OXIDE HERBICIDES” (E. I. DU PONT DE NEMOURS AND COMPANY, priority 2007, published 2010).

Columns and labels:
morningglory [1] = assay: Test A pre-/postemergence greenhouse test; format: in vivo, Ipomoea spp.; details: for Morningglory plant response rating: 0 to 100 scale; for Plant response rating, Morningglory: 0 to 100 scale where 0 is no effect and 100 is complete control
How it was run: (§1)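 Sowing in loam/sand; same-day pre (directed soil spray) and post (foliar, 1–2 leaf, 2–10 cm) treatment with surfactant-containing non-phytotoxic solvent formulation; ~10 days in greenhouse; eye-scored injury against untreated plants.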

redroot pigweed = assay: Test A pre-/postemergence greenhouse test; format: in vivo, Amaranthus retroflexus; details: for Pigweed plant response rating: 0 to 100 scale; for Plant response rating, Pigweed: 0 to 100 scale where 0 is no effect and 100 is complete control
How it was run: as §1

corn [2] = assay: Test A pre-/postemergence greenhouse test; format: in vivo, Zea mays; details: for Corn plant response rating: 0 to 100 scale; for Plant response rating, Corn: 0 to 100 scale where 0 is no effect and 100 is complete control
How it was run: as §1

Italian ryegrass = assay: Test C pre-/postemergence test; format: in vivo, Lolium multiflorum; details: for Plant response rating (0 to 100), Ryegrass, Italian: 250 g ai/ha
How it was run: (§2)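 Compounds in a non-phytotoxic solvent with surfactant applied preemergence to seeded pots and, at the same time, postemergence to plants 2–18 cm tall (1- to 4-leaf stage). Paddy tests: pots flooded to 3 cm, compound applied into the water, depth held throughout.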

wheat = assay: Test C pre-/postemergence test; format: in vivo, Triticum aestivum; details: for Wheat plant response rating: preemergence, scale 0 (no effect) to 100 (complete control); for Plant response rating (0 to 100), Wheat: Preemergence, 250 g ai/ha
How it was run: as §2

wild oat = assay: Test C pre-/postemergence test; format: in vivo, Avena fatua; details: for Plant response rating (0 to 100), Oat, Wild: 250 g ai/ha
How it was run: as §2

bermudagrass = assay: Test C pre-/postemergence test; format: in vivo, Cynodon dactylon; details: for Plant response rating (0 to 100), Bermudagrass: 250 g ai/ha
How it was run: as §2

cocklebur = assay: Test C pre-/postemergence test; format: in vivo, Xanthium strumarium; details: for Plant response rating (0 to 100), Cocklebur: 250 g ai/ha
How it was run: as §2

corn [3] = assay: Test C pre-/postemergence test; format: in vivo, Zea mays; details: for Plant response rating (0 to 100), Corn: 250 g ai/ha
How it was run: as §2

giant foxtail = assay: Test C pre-/postemergence test; format: in vivo, Setaria faberii; details: for Plant response rating (0 to 100), Foxtail, Giant: 250 g ai/ha
How it was run: as §2

johnsongrass = assay: Test C pre-/postemergence test; format: in vivo, Sorghum halepense; details: for Plant response rating (0 to 100), Johnsongrass: 250 g ai/ha
How it was run: as §2

kochia = assay: Test C pre-/postemergence test; format: in vivo, Kochia scoparia; details: for Plant response rating (0 to 100), Kochia: 250 g ai/ha
How it was run: as §2

morningglory [4] = assay: Test C pre-/postemergence test; format: in vivo, Ipomoea coccinea; details: for Plant response rating (0 to 100), Morningglory: 250 g ai/ha
How it was run: as §2

eastern black nightshade = assay: Test C pre-/postemergence test; format: in vivo, Solanum ptycanthum; details: for Plant response rating (0 to 100), Nightshade: 250 g ai/ha
How it was run: as §2

yellow nutsedge = assay: Test C pre-/postemergence test; format: in vivo, Cyperus esculentus; details: for Plant response rating (0 to 100), Nutsedge, Yellow: 250 g ai/ha
How it was run: as §2

[5] = test system: common (oilseed) sunflower; assay: Test C pre-/postemergence test; format: in vivo, Helianthus annuus; details: for Sunflower plant response rating: preemergence, scale 0 (no effect) to 100 (complete control); for Plant response rating (0 to 100), Sunflower: Preemergence, 250 g ai/ha
How it was run: as §2

rice = assay: Test C flooded paddy test; format: in vivo, Oryza sativa; details: Flood
How it was run: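 Ratings were visual and made relative to untreated controls after 13 to 15 greenhouse days.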

[6] = Postemergence, 125 g ai/ha, 0 is no effect, 100 is complete control
[7] = Postemergence, 500 g ai/ha, 0 is no effect, 100 is complete control
[8] = Preemergence, 125 g ai/ha, 0 no effect, 100 complete control
[9] = 31 g ai/ha, Preemergence, scale 0 to 100
[10] = 62 g ai/ha, preemergence, scale 0 (no effect) to 100 (complete control)
[11] = preemergence, 125 g ai/ha, scale 0 (no effect) to 100 (complete control)
[12] = 31 g ai/ha, scale 0 to 100 (0 no effect, 100 complete control)
[13] = 62 g ai/ha, scale 0 to 100, 0 no effect, 100 complete control, 13 to 15 days
[14] = 125 g ai/ha, scale 0 to 100, 0 no effect, 100 complete control, 13 to 15 days
[15] = 250 g ai/ha, scale 0 to 100 (0 no effect, 100 complete control)

CC(c1c(C(F)(F)F)nn(C)c1Cl)S(=O)(=O)c1cccc[n+]1[O-] (centres unmarked) [Compound 10]
Morningglory plant response rating (morningglory [1]; [6]): 20 | Morningglory plant response rating (morningglory [1]; [7]): 90 | Morningglory plant response rating (morningglory [1]; [8]): 80 | Plant response rating, Morningglory (morningglory [1]; Preemergence, 500 g ai/ha): 90 | Pigweed plant response rating (redroot pigweed; [6]): 30 | Pigweed plant response rating (redroot pigweed; [7]): 60 | Pigweed plant response rating (redroot pigweed; [8]): 100 | Plant response rating, Pigweed (redroot pigweed; Preemergence, 500 g ai/ha): 100 | Corn plant response rating (corn [2]; [6]): 40 | Corn plant response rating (corn [2]; [7]): 60 | Corn plant response rating (corn [2]; [8]): 0 | Plant response rating, Corn (corn [2]; Preemergence, 500 g ai/ha): 50 | Ryegrass, Italian plant response rating (Italian ryegrass; [9]): 20 | Ryegrass, Italian plant response rating (Italian ryegrass; [10]): 40 | Plant response rating (0 to 100), Ryegrass, Italian (Italian ryegrass; Preemergence): 98 | Ryegrass, Italian plant response rating (Italian ryegrass; [11]): 90 | Wheat plant response rating (wheat; 62 g ai/ha): 35 | Plant response rating (0 to 100), Wheat (wheat): 80 | Wheat plant response rating (wheat; 125 g ai/ha): 60 | Oat, Wild plant response rating (wild oat; [9]): 0 | Oat, Wild plant response rating (wild oat; [10]): 0 | Plant response rating (0 to 100), Oat, Wild (wild oat; Preemergence): 65 | Oat, Wild plant response rating (wild oat; [11]): 60 | Bermudagrass plant response rating (bermudagrass; [9]): 95 | Bermudagrass plant response rating (bermudagrass; [10]): 100 | Plant response rating (0 to 100), Bermudagrass (bermudagrass; Preemergence): 100 | Bermudagrass plant response rating (bermudagrass; [11]): 100 | Cocklebur plant response rating (cocklebur; [9]): 0 | Cocklebur plant response rating (cocklebur; [10]): 0 | Plant response rating (0 to 100), Cocklebur (cocklebur; Preemergence): 0 | Cocklebur plant response rating (cocklebur; [11]): 0 | Corn plant response rating (corn [3]; [9]): 0 | Corn plant response rating (corn [3]; [10]): 5 | Plant response rating (0 to 100), Corn (corn [3]; Preemergence): 95 | Corn plant response rating (corn [3]; [11]): 60 | Foxtail, Giant plant response rating (giant foxtail; [9]): 85 | Foxtail, Giant plant response rating (giant foxtail; [10]): 100 | Plant response rating (0 to 100), Foxtail, Giant (giant foxtail; Preemergence): 100 | Foxtail, Giant plant response rating (giant foxtail; [11]): 100 | Johnsongrass plant response rating (johnsongrass; [9]): 70 | Johnsongrass plant response rating (johnsongrass; [10]): 100 | Plant response rating (0 to 100), Johnsongrass (johnsongrass; Preemergence): 100 | Johnsongrass plant response rating (johnsongrass; [11]): 100 | Kochia plant response rating (kochia; [9]): 0 | Kochia plant response rating (kochia; [10]): 40 | Plant response rating (0 to 100), Kochia (kochia; Preemergence): 100 | Kochia plant response rating (kochia; [11]): 80 | Morningglory plant response rating (morningglory [4]; [9]): 85 | Morningglory plant response rating (morningglory [4]; [10]): 100 | Plant response rating (0 to 100), Morningglory (morningglory [4]; Preemergence): 100 | Morningglory plant response rating (morningglory [4]; [11]): 100 | Nightshade plant response rating (eastern black nightshade; [9]): 90 | Nightshade plant response rating (eastern black nightshade; [10]): 98 | Plant response rating (0 to 100), Nightshade (eastern black nightshade; Preemergence): 100 | Nightshade plant response rating (eastern black nightshade; [11]): 100 | Nutsedge, Yellow plant response rating (yellow nutsedge; [9]): 60 | Nutsedge, Yellow plant response rating (yellow nutsedge; [10]): 98 | Plant response rating (0 to 100), Nutsedge, Yellow (yellow nutsedge; Preemergence): 100 | Nutsedge, Yellow plant response rating (yellow nutsedge; [11]): 98 | Sunflower plant response rating ([5]; 62 g ai/ha): 0 | Plant response rating (0 to 100), Sunflower [5]: 100 | Sunflower plant response rating ([5]; 125 g ai/ha): 85 | Plant response rating, Rice (rice; [12]): 0 | Plant response rating, Rice (rice; [13]): 25 | Plant response rating, Rice (rice; [14]): 70 | Plant response rating, Rice (rice; [15]): 80

Cc1cc[n+]([O-])c(S(=O)(=O)C(C)c2c(C(F)(F)F)nn(C)c2OC(F)F)c1 (centres unmarked) [Compound 11]
Morningglory plant response rating (morningglory [1]; [6]): 40 | Morningglory plant response rating (morningglory [1]; [7]): 50 | Morningglory plant response rating (morningglory [1]; [8]): 60 | Plant response rating, Morningglory (morningglory [1]; Preemergence, 500 g ai/ha): 90 | Pigweed plant response rating (redroot pigweed; [6]): 10 | Pigweed plant response rating (redroot pigweed; [7]): 60 | Pigweed plant response rating (redroot pigweed; [8]): 100 | Plant response rating, Pigweed (redroot pigweed; Preemergence, 500 g ai/ha): 100 | Corn plant response rating (corn [2]; [6]): 30 | Corn plant response rating (corn [2]; [7]): 50 | Corn plant response rating (corn [2]; [8]): 30 | Plant response rating, Corn (corn [2]; Preemergence, 500 g ai/ha): 60 | Ryegrass, Italian plant response rating (Italian ryegrass; [9]): 0 | Ryegrass, Italian plant response rating (Italian ryegrass; [10]): 40 | Plant response rating (0 to 100), Ryegrass, Italian (Italian ryegrass; Preemergence): 80 | Ryegrass, Italian plant response rating (Italian ryegrass; [11]): 70 | Wheat plant response rating (wheat; 62 g ai/ha): 20 | Plant response rating (0 to 100), Wheat (wheat): 85 | Wheat plant response rating (wheat; 125 g ai/ha): 80 | Oat, Wild plant response rating (wild oat; [9]): 0 | Oat, Wild plant response rating (wild oat; [10]): 0 | Plant response rating (0 to 100), Oat, Wild (wild oat; Preemergence): 80 | Oat, Wild plant response rating (wild oat; [11]): 20 | Bermudagrass plant response rating (bermudagrass; [9]): 100 | Bermudagrass plant response rating (bermudagrass; [10]): 100 | Plant response rating (0 to 100), Bermudagrass (bermudagrass; Preemergence): 100 | Bermudagrass plant response rating (bermudagrass; [11]): 100 | Cocklebur plant response rating (cocklebur; [9]): 0 | Cocklebur plant response rating (cocklebur; [10]): 0 | Plant response rating (0 to 100), Cocklebur (cocklebur; Preemergence): 0 | Cocklebur plant response rating (cocklebur; [11]): 0 | Corn plant response rating (corn [3]; [9]): 0 | Corn plant response rating (corn [3]; [10]): 50 | Plant response rating (0 to 100), Corn (corn [3]; Preemergence): 98 | Corn plant response rating (corn [3]; [11]): 98 | Foxtail, Giant plant response rating (giant foxtail; [9]): 80 | Foxtail, Giant plant response rating (giant foxtail; [10]): 98 | Plant response rating (0 to 100), Foxtail, Giant (giant foxtail; Preemergence): 100 | Johnsongrass plant response rating (johnsongrass; [9]): 100 | Johnsongrass plant response rating (johnsongrass; [10]): 100 | Plant response rating (0 to 100), Johnsongrass (johnsongrass; Preemergence): 100 | Johnsongrass plant response rating (johnsongrass; [11]): 100 | Kochia plant response rating (kochia; [9]): 60 | Kochia plant response rating (kochia; [10]): 100 | Plant response rating (0 to 100), Kochia (kochia; Preemergence): 100 | Kochia plant response rating (kochia; [11]): 100 | Morningglory plant response rating (morningglory [4]; [9]): 98 | Morningglory plant response rating (morningglory [4]; [10]): 100 | Plant response rating (0 to 100), Morningglory (morningglory [4]; Preemergence): 100 | Morningglory plant response rating (morningglory [4]; [11]): 100 | Nightshade plant response rating (eastern black nightshade; [9]): 95 | Nightshade plant response rating (eastern black nightshade; [10]): 100 | Plant response rating (0 to 100), Nightshade (eastern black nightshade; Preemergence): 100 | Nightshade plant response rating (eastern black nightshade; [11]): 100 | Nutsedge, Yellow plant response rating (yellow nutsedge; [9]): 70 | Nutsedge, Yellow plant response rating (yellow nutsedge; [10]): 98 | Plant response rating (0 to 100), Nutsedge, Yellow (yellow nutsedge; Preemergence): 100 | Nutsedge, Yellow plant response rating (yellow nutsedge; [11]): 100 | Sunflower plant response rating ([5]; 62 g ai/ha): 30 | Plant response rating (0 to 100), Sunflower [5]: 98 | Sunflower plant response rating ([5]; 125 g ai/ha): 98 | Plant response rating, Rice (rice; [12]): 0 | Plant response rating, Rice (rice; [13]): 70 | Plant response rating, Rice (rice; [14]): 80 | Plant response rating, Rice (rice; [15]): 80
